{"source": "patent US6039963A", "about": "“Ceramide compounds, process for their preparation and use” (L'Oreal, priority 1995, dated 2000)", "key": {"[1]": {"test": "coefficient of friction of the hair (smoothness), bleached hair, 1% in THF", "conditions": "for coefficient of friction of the hair, R → T: root to tip; for coefficient of friction of the hair, T → R: tip to root", "experimental": "(§1) A comparative test was performed on the effects on the smoothness of the hair of a solution containing 1% of the compound of Example 4 in tetrahydrofuran (THF), relative to a control consisting of THF, or to a solution containing, in place of the compound according to the invention, either the pure isomer (D-ribo form) corresponding to the compound of Example 4 (compound A) or the compound of Example 1 of the European patent application published under the No. 0,500,437 owned by the present assignee (compound B).\n(§2) This test determines the coefficient of friction of the hair by measuring the force to apply to a control mass in order to make it slide at constant speed on two hairs stretched out in parallel. The measurement is made by sliding the mass from the root to the tip of the hairs (R→T) and vice versa (T→R)."}, "[2]": {"test": "coefficient of friction of the hair (smoothness), neutral hair, 1% in THF", "conditions": "for coefficient of friction of the hair, R → T / coefficient of friction of the hair, T → R: neutral hair, 1% in THF; for coefficient of friction of the hair, R → T: root to tip; for coefficient of friction of the hair, T → R: tip to root", "experimental": "as §1, §2"}, "[3]": {"test": "imperceptible water loss (IWL), evaporimeter (Servomed) on delipidized stratum corneum", "excerpt": "This measurement is made using an evaporimeter (Servomed) which quantitatively determines water evaporation, that is to say diffusional water transport, from a sample of previously delipidized stratum corneum which forms a stopper in a cylindrical capsule containing water, the entire assembly being placed in a chamber at controlled temperature and relative humidity.\nSensors allow the partial vapor pressure of water to be measured at two points located at different distances from the sample.\nThe partial vapor pressure of water is thus determined between the two points, and thus the rate of evaporation in accordance with Fick's law.\nA comparative test was performed of the effects on the IWL of a solution containing the compound of Example 2 or 4 in tetrahydrofuran (THF) relative to a solution containing, in place of the compound according to the invention, either the pure isomer (D-ribo form) corresponding to the compound of Example 4 (compound A), or the compound of Example 1 of the European patent application published under the No. 0,500,437 filed by the Applicant (compound B)."}}}
{"smiles": "CCCCCCCCCCCCCCCC(=O)NC(CO)C(O)C(O)CCCCCCCCCCCCCC", "note": "(stereo not drawn) [Example 4, 2-N-hexadecanoylaminooctadecane-1,3,4-triol (8 isomers)]", "values": [{"measurement": "coefficient of friction of the hair, R → T", "setting": "[1]; non-rinsed", "result": "0.009 ± 0.006"}, {"measurement": "coefficient of friction of the hair, T → R", "setting": "[1]; non-rinsed", "result": "0.147 ± 0.006"}, {"measurement": "coefficient of friction of the hair, R → T", "setting": "[1]; rinsed", "result": "0.085 ± 0.002"}, {"measurement": "coefficient of friction of the hair, T → R", "setting": "[1]; rinsed", "result": "0.155 ± 0.004"}, {"measurement": "coefficient of friction of the hair, R → T", "setting": "[2]; non-rinsed", "result": "0.089 ± 0.003"}, {"measurement": "coefficient of friction of the hair, T → R", "setting": "[2]; non-rinsed", "result": "0.143 ± 0.003"}, {"measurement": "coefficient of friction of the hair, R → T", "setting": "[2]; rinsed", "result": "0.095 ± 0.004"}, {"measurement": "coefficient of friction of the hair, T → R", "setting": "[2]; rinsed", "result": "0.147 ± 0.004"}, {"measurement": "coefficient of friction (result in words)", "setting": "[2]; summary of Table 1, neutral and bleached hair", "result": "marked decrease in the coefficient of friction"}, {"measurement": "I.W.L. 20 H (%)", "setting": "[3]; 1% in THF", "result": "-9 ± 2", "unit": "%"}, {"measurement": "I.W.L. 20 H (%)", "setting": "[3]; 1.5% in THF", "result": "-15 ± 2", "unit": "%"}]}
{"smiles": "CCCCCCCCCCCCCCC(O)C(=O)NC(CO)C(O)C(O)CCCCCCCCCCCCCC", "note": "(racemic) [Example 2, 2-N-hydroxyhexadecanoylaminooctadecane-1,3,4-triol(4 isomers)]", "values": [{"measurement": "I.W.L. 20 H (%)", "setting": "[3]; 2% in THF", "result": "-31 ± 2", "unit": "%"}]}
{"smiles": "CCCCCCCCCCCCCCCC(=O)N[C@@H](CO)[C@H](O)[C@H](O)CCCCCCCCCCCCCC", "note": "[Compound A, reference compound]", "values": [{"measurement": "coefficient of friction of the hair, R → T", "setting": "[1]; non-rinsed", "result": 0.000}, {"measurement": "coefficient of friction of the hair, T → R", "setting": "[1]; non-rinsed", "result": 0.000}, {"measurement": "coefficient of friction of the hair, R → T", "setting": "[1]; rinsed", "result": "0.191 ± 0.004"}, {"measurement": "coefficient of friction of the hair, T → R", "setting": "[1]; rinsed", "result": "0.264 ± 0.012"}, {"measurement": "coefficient of friction of the hair, R → T", "setting": "[2]; non-rinsed", "result": 0.000}, {"measurement": "coefficient of friction of the hair, T → R", "setting": "[2]; non-rinsed", "result": 0.000}, {"measurement": "coefficient of friction of the hair, R → T", "setting": "[2]; rinsed", "result": "0.125 ± 0.004"}, {"measurement": "coefficient of friction of the hair, T → R", "setting": "[2]; rinsed", "result": "0.214 ± 0.004"}, {"measurement": "I.W.L. 20 H (%)", "setting": "[3]; 1% in THF", "result": "0 ± 2", "unit": "%"}]}
